According to US20150218516A1, “COMPOSITIONS AND METHODS FOR ENHANCING IMMUNE RESPONSES MEDIATED BY ANTIGEN-PRESENTING CELLS” (The Board of Regents of the University of Nebraska, priority 2007, published 2015):
Entries after “also recorded” stand apart in the source; their conditions may differ. Non-standard residues stand in square brackets, D forms with d. Residues, ends and D or L forms follow the SMILES beside them.

Assays:
[1] = test system: A-375 cell line (melanoma); assay type: cell-based, human
Protocol: (§1) The tumor peptide antigen tyrosinase is expressed on more than 70% of human melanoma cells that are human leukocyte antigen (HLA) A2 positive. […] The dendritic cells, presumably expressing the tyrosinase epitope, were then cultured with a lymphocyte-enriched cell population which was then cultured with melanoma cells to determine melanoma cell killing using a cytotoxic T lymphocyte assay.

LNCaP cells = test system: LNCaP cells
Protocol: An exemplary in vitro cytotoxicity assay comprises the following steps. Antigen presenting cells, such as dendritic cells, were obtained from bone marrow or blood. Dendritic cells were preferentially differentiated in culture through the addition of IL-4, GM-CSF, and TNFα for 7-10 days. Dendritic cells were then pulsed with peptides for 18 hours. MNCs were also isolated from spleens or blood (e.g., cord or peripheral) and cultured in IL-2 and GM-CSF for 7-10 days for enhanced lymphocyte proliferation. The pulsed dendritic cells were then co-cultured with the lymphocyte-enriched MNCs at a 1:10 ratio for 4 days. Lymphocyte-enriched MNC effector cells were then co-cultured with tumor target cells labeled with the bioactive fluorescent dye Calcein AM for 4 hours. Lysed cells were detected by photometrically measuring the released fluorescent dye.
Certain prostate carcinomas express prostate-specific membrane antigen (PSMA). […] The fusion peptides were administered to APCs which were subsequently presented to a lymphocyte-enriched population from cord blood as described hereinabove in Example 6. After antigen presentation by pulsed DC in co-culture, CTLs were tested for their ability to lyse three different target cell monolayers in an in vitro cytotoxicity assay. […] The fusion peptides were also administered to APCs which were subsequently presented to a adult peripheral blood-derived CTLs. In vitro cytotoxicity against the human prostate cancer cell line LNCaP was then assessed using the bioactive fluorescent dye calcein AM (FIG. 11D).

SKmel-28 = assay: In vitro cytotoxicity of T lymphocytes cultured with peptide-pulsed dendritic cells against SKmel-28; assay type: cell-based, human; conditions: UCB or PBMC derived T lymphocytes cultured with dendritic cells exposed to the peptide
Protocol: as §1

Caki-1 cells = assay: In vitro cytotoxicity of T lymphocytes cultured with peptide-pulsed dendritic cells against Caki-1; assay type: cell-based, human; conditions: cord blood-derived T lymphocytes cultured with dendritic cells exposed to the peptide
human PMNs = assay: MPO release from human PMNs; assay type: cell-based
Protocol: (§2) Statistical analysis of the values obtained from pharmacologic assays was performed using one-way analysis of variance (ANOVA).

[2] = test system: immunizing peptide and free peptides; assay: ELISA of sera from mice immunized with HBsAg CTL epitope-C5a agonist constructs; assay type: in vivo; conditions: sera after three injections
Protocol: (§3) Groups of six to eight BALB/c mice were given bilateral s.c. injections in the inguinal area with (100 al each side) of a PBS solution containing 50-100 μg of the peptides. Booster injections were given s.c. in the inguinal region at 21-day intervals. Sera for Ab analysis were obtained by retro-orbital bleeds of mice under CO2 narcosis.
Thus, it was of interest to determine whether sera from mice immunized with the control peptides and epitope-C5a agonist constructs contained Ab directed against any of the peptides. […] (SEQ ID NO:12), […]

human umbilical artery = assay: Smooth muscle contraction of human umbilical artery; assay type: cell-based
Protocol: as §2

[3] = test system: P815S (HBsAg transfectant) target cells; assay: HBsAg-specific CTL response of immunized mice, 51Cr-release cytotoxicity assay; assay type: in vivo, BALB/c mice; conditions: for % Specific Lysis: s.c. in PBS
Protocol: as §3
Three weeks after secondary) (2° immunization and two weeks after tertiary)(3° immunization, two to three mice from each experimental group were sacrificed by cervical dislocation and their spleens removed aseptically. Pooled splenic single-cell suspensions were prepared in RPMI-1640 medium (Sigma, St. Louis, Mo.) containing 10% FBS (Hyclone, Salt Lake City, Utah) and the following supplements: 10 mM HEPES buffer, 50 μM 2-ME, 2 mM L-glutamine, 50 μg/ml gentamicin sulfate, 100 Um′ penicillin, and 50 μg/ml streptomycin (all supplements from Sigma). This supplemented complete medium is designated RP10-SC. For culture, 75×10^6 pooled spleen cells in 5 ml of RP10-SC were pipetted into a 25 cm^2 T-flask (Corning). Next, 5 ml of RP 10-SC containing 150 nM of synthetic, L^d MHC class I-restricted peptide, […] (SEQ ID NO:12) were added to the flask. The flasks were incubated undisturbed in an upright position at 37° C. in 5% CO2. After 4 days of incubation, the cells were recovered from the T-flasks, washed once by centrifugation in fresh RP10-SC, resuspended in 5 ml RP10-SC, counted, and adjusted to 5×10^6 viable cells/ml.
The specific cell target used for measuring CTL activity was P815S, a transfectant cell line of P815 (H-2^d) expressing the HBsAg (14). P815S was grown in RP10-SC medium containing 400 μg/ml geneticin disulfate (G418, Sigma). The parental H-2^d mastocytoma cell line, P815 (ATTC #TIB64) grown in RP10-SC medium, was used as a non-specific target for CTL assays to measure % non-specific lysis.
The target cells, either P815S or P815, were washed 2 times in RP10-SC. For labeling, 5×10^6 target cells were mixed with 250 μCi ^51Cr-sodium chromate[400-1200 Ci (14.8-44.4 TBq)]/[…]; NEN Dupont, Boston, Mass.) in a 1.0 ml volume in a 50 ml conical tube and incubated in a 37° C. water bath for 90 mins. After incubation, the labeled cells were washed 3 times by centrifugation using 15 ml volumes of fresh RP10-SC and allowed to stand at room temperature for 30 mins. The pelleted cells were resuspended in RP10-SC at 1×10^6 cells/ml.
The recovered splenic effector cells at 5×10^6 cells/ml were serially diluted in triplicate in wells of round-bottom 96 well plates (Corning, 25850) in a total volume of 100 al/well and using RP10-SC as the diluent. Next, 100 μl volumes of ^51Cr-labeled targets, P815S or P815, at 1×10^6 cells/ml were added to the wells. Maximum release (MR) wells contained 100 al of target cells and 100 al of 2% (v/v) Tween 20 while spontaneous release (SR) wells contained labeled cells in medium alone. Effector-to-target ratios of 50:1, 25:1, 12.5:1, and 6.25:1 were routinely employed. The plates were centrifuged at 400×g and incubated at 37° C. in 5% CO2 for 4 hrs. After incubation, the supernatant fractions in the wells were collected using a Skatron Supernatant Collection System (Skatron Instruments, Sterlin, Va.). The amount of ^51Cr radioactivity in the supernatant fractions was measured using a Wallac 1470 Wizard gamma counter (Turku, Finland).

YMNGTMSQV [tyrosinase antigen] was tested, and the “cytotoxicity against A-375 (in words)” value [1] was “minimal cytotoxicity”, the “cytotoxicity against LNCaP (in words)” value (LNCaP cells) was “did not exhibit significant cytotoxicity” and the “cytotoxicity against SKmel-28 (in words)” value (SKmel-28) was “minimal cytotoxicity”.

`CSCC[C@H](NC(=O)[C@H](CC(=O)O)NC(=O)[C@H](CCCCN)NC(=O)[C@H](Cc1ccccc1)NC(=O)[C@H](CO)NC(=O)[C@@H](N)Cc1ccc(O)cc1)C(=O)N1CCC[C@H]1C(=O)N(C)[C@@H](CC(C)C)C(=O)N[C@H](C)C(=O)N[C@@H](CCCNC(=N)N)C(=O)O` [YSFKDMP(MeL)aR] was tested, and the “cytotoxicity against tyrosinase-negative Caki-1 (in words)” value (Caki-1 cells) was “incapable of killing”.

`CC[C@H](C)[C@H](N)C(=O)N1CCC[C@H]1C(=O)N[C@@H](CCC(N)=O)C(=O)N[C@@H](CO)C(=O)N[C@@H](CC(C)C)C(=O)N[C@@H](CC(=O)O)C(=O)N[C@@H](CO)C(=O)N[C@@H](Cc1c[nH]c2ccccc12)C(=O)N[C@@H](Cc1c[nH]c2ccccc12)C(=O)N[C@H](C(=O)N[C@@H](CO)C(=O)N[C@@H](CC(C)C)C(=O)N[C@@H](CCCNC(=N)N)C(=O)N[C@@H](CCCNC(=N)N)C(=O)N[C@@H](Cc1ccc(O)cc1)C(=O)N[C@@H](CO)C(=O)N[C@@H](Cc1ccccc1)C(=O)N[C@@H](CCCCN)C(=O)N1CCC[C@H]1C(=O)N[C@@H](CCSC)C(=O)N1CCC[C@H]1C(=O)N[C@@H](CC(C)C)C(=O)N[C@H](C)C(=O)N[C@@H](CCCNC(=N)N)C(=O)O)[C@@H](C)O` (H-IPQSLDSWWTSLRRYSFKPMPL[dA]R-OH) was tested, and the EC50 (human PMNs; 50% maximum release of myeloperoxidase) was 540 nM, the “pD2 ± SE” value (human PMNs; −log EC50 (M), mean ± SE, n=3) was 6.27 ± 0.29 and the “serum binding to free peptides […] or YSFKPMPLaR” value [2] was “did not bind”. For the same molecule, the EC50 (human umbilical artery; concentration resulting in 50% maximum contraction) was 161 nM, the “agonist behaviour relative to natural C5a (in words)” value (human umbilical artery; umbilical artery contraction and MPO release assays) was “full agonists” and the “pD2 ± SE” value (human umbilical artery; −log EC50 (M), mean ± SE, n=3) was 6.79 ± 0.31. For the same molecule, the “% Specific Lysis” value ([3]; Effector:Target 6.25:1, boost day 21, spleen cells day 42) was 9%, the “% Specific Lysis” value ([3]; Effector:Target 12.5:1, boost day 21, spleen cells day 42) was 14% and the “% Specific Lysis” value ([3]; Effector:Target 25:1, boost day 21, spleen cells day 42) was 23%. For the same molecule, the “% Specific Lysis” value ([3]; Effector:Target 50:1, boost day 21, spleen cells day 42, restimulated 4 days with S28-39) was 32% and the “Ag-specific CTL response (in words)” value ([3]; two or three s.c. injections at 21 day intervals, no added adjuvant) was “significant CTL response; also recorded: generated an Ag-specific CTL response; also recorded: robust CTL activity”.
